Results taken from patent US9808434B2, “Compound for treating cancer and diabetes” (CITY OF HOPE, priority 2011, dated 2017).

Legend:
PBT-017 = experiment: Glioma ATP viability assay, PBT-017; type: cell-based; conditions: 72 h
Protocol: (§1) Cells of each cell line (U251, U87, PBT-017, PBT018, PBT003 and PBT028) were treated with various concentrations (0˜100 μM) of COH-SR4 for 72 hours. Cell viabilities were determined by ATP viability assays. Data were represented as a ratio to vehicle (DMSO) control, and plotted as mean±SEM (n=12) obtained from 2˜3 experiments (FIG. 34A).
as §1, with “(U87, U251,” for “(U251, U87, PBT-017, PBT018,”, “PVT-017)” for “PBT028)”, “2-3” for “2˜3”, “34B).” for “34A).”
Cells of each cell line were treated with various concentrations (0˜100 μM) of COH-SR4 or various concentrations (0˜1000 μM) of TMZ for 72 hours. Cell viabilities were determined by ATP viability assays. Data were represented as a ratio to untreated cells as control, and plotted as mean±SEM (n=12) obtained from 2˜3 experiments (FIGS. 43A-B).

PBT-017 glioma cells = experiment: Combination index with chemotherapy drugs, PBT-017; type: cell-based
Protocol: Effects of combination of COH-SR4 and a chemotherapy drug such as TMZ, SN38, CPT-11, and 5-FU were studied by combination index (CI) theorem and plot using the method described in Chou (“Experimental Design, and Computerized Simulation of Synergism and Antagonism in Drug Combination Studies,” Pharmacological Reviews, Vol. 58, No. 3), which is incorporated herein by reference in its entirety.
COH-SR4 and a chemotherapy drug (TMZ, SN38, CPT-11, or 5-FU) were dissolved in DMSO individually, and then diluted to the appropriate concentration in the same cell culture media before applying to cells of each cell line. After 4 days, the amount of ATP present in the cell lysates were assessed using Progema's CellGlo kit. The CI of each combination of COH-SR4 and the chemotherapy drug was calculated and plotted against the concentration of COH-SR4 for each concentration of the chemotherapy drug used.

B16 mouse melanoma tumor = experiment: Histopathology (IHC) of B16 melanoma tumor sections; type: in vivo; conditions: treated vs control tumors
Protocol: B16 melanoma bearing C57B mice tumor sections were treated without or with COH-SR4, and used for histopathologic analyses.
H&E stain, or hematoxylin and eosin stain, a general gross morphology stain were used. […] Eosin was pink and stained proteins nonspecifically. In a typical tissue, nuclei were stained blue, whereas the cytoplasm and extracellular matrix had varying degrees of pink staining. The pink coloration in the control tumor cells indicated cell proliferation (FIG. 57)
IHC analyses for Ki-67 expression (marker of cellular proliferation), CD31 (angiogenesis marker), and pAMPK (cellular regulator of lipid and glucose metabolism) from tumors in mice of control and COH-SR4-treated groups were carried out. Statistical significance of difference was determined by two-tailed Student's t test. When COH-SR4-treated tumor sections were compared with the control, p<0.001. […] Sections were counterstained with Hematoxylin (blue). Photomicrographs at 40× magnification were acquired using Olympus Provis AX70 microscope. Percent staining was determined by measuring positive immuno-reactivity per unit area. Arrows indicated the areas for positive staining for an antigen. The intensity of antigen staining was quantified by digital image analysis. Bars represented mean+S.E. (n=5); “*” means p<0.001 compared with control.

GST = GST activity towards CDNB in lung cancer cell supernatants; type: biochemical, human; conditions: H1417, H1618, H520, H358 supernatants; 1 mM GSH and CDNB
Protocol: In the context of the elevation of GSTs in lung cancer, the impact of COH-SR4 on the catalytic activity of GSTs towards 1-chloro 2,4-dinitro benzene (CDNB), a model substrate used for GST activity was analyzed. GST activity towards 1-chloro 2,4-dinitro benzene (CDNB) and its inhibition by COH-SR4 was performed in 28000×g crude supernatant prepared from H1417, H1618, H520 and H358 cells. The inhibitory effect of COH-SR4 on GST was studied at a fixed concentration of GSH and CDNB (1 mM each) and varying concentrations of inhibitor. The enzymes were pre-incubated with the inhibitor for 5 min at 37° C. prior to the addition of the substrates. The experiment was repeated three times and similar results were obtained. […] Human liver purified GST was used as a control (FIG. 79B, inset). GSTs are a class of phase II detoxifying enzymes, which regulate detoxification of administered chemotherapy drugs for further efflux out of cells by transport proteins. The GST inhibition leads to accumulation of toxic end-products of lipid peroxidation due to decreased efflux of GS-HNE which also reinforces the GST inhibition by feedback inhibition. The over-expression of GSTs is a common phenomenon associated with malignant progression of many cancers including lung cancer, melanomas skin and prostate cancers. […]

[1] = tested on: mouse C2C12, HepG2, and 3T3-L1 cells; experiment: Oxygen consumption rate in myotubes, liver cells, adipocytes; type: cell-based
Protocol: Oxygen consumption rate (OCR), a measure of OxPhos, and extracellular acidification rate (ECAR), a measure of lactate production by glycolysis, were measured using a Seahorse Xf^e96 Flux Analyzers (Seahorse Biosciences, North Billerica, Mass.). Cells were seeded in DMEM media in Seahorse 96-well tissue culture plates at a density of 5×10^3 cells/well and allowed to adhere for 24 h. Prior to the assay, the media was changed to unbuffered DMEM containing 25 mM glucose, 1 mM pyruvate and 1 mM glutamine, with 0.2% fatty acid/endotoxin-free BSA (w/v) (pH 7.4) and the cells were equilibrated for 30 min at 37° C. Test compounds were injected during the assay and OCR and ECAR were measured using 2-3 min measurement periods. Similar sets of experiments were performed in the presence of the mitochondria recoupler agent 6-KCH or the mitochondrial permeability transition (MPT) pore blocker CSA, where each compound was injected into the assay media prior to COH-SR4 or FCCP injection. In separate experiments with A2058 and A2058 p° cells, a modified Mitostress test was performed accordingly per Seahorse protocols (89, 90). […] OCR was measured throughout the different injections of the stressors and test compounds (indicated by arrows in the figures). […]

O=C(Nc1cc(Cl)cc(Cl)c1)Nc1cc(Cl)cc(Cl)c1 [COH-SR4, 1,3-bis(3,5-dichlorophenyl) urea]
IC50 (PBT-017; Table 1): 2000 nM
IC50 (PBT-017; Table 2): 2100 nM
combination effect (CI) with 5-FU (PBT-017 glioma cells; COH-SR4 <0.05 μM + 5-FU >250 μM): Additive effects
combination effect (CI) with CPT-11 (PBT-017 glioma cells; COH-SR4 <0.5 μM + CPT-11 <0.0625 μM): Synergism
combination effect (CI) with SN-38 (PBT-017 glioma cells; COH-SR4 <0.5 μM + SN-38 <0.0004 μM): Synergism
combination effect (CI) with TMZ (PBT-017 glioma cells; COH-SR4 <0.5 μM + TMZ 25 μM): Synergism
combination effect (CI) with TMZ (PBT-017 glioma cells; COH-SR4 <1.0 μM + TMZ >100 μM): Additive effects
combination effect (CI) with SN-38 (PBT-017 glioma cells; COH-SR4 >0.5 μM + SN-38 <0.001 μM): Additive effects
combination effect (CI) with CPT-11 (PBT-017 glioma cells; COH-SR4 >1.0 μM + CPT-11 <0.5 μM): Additive effects
CD31 (angiogenesis marker) (B16 mouse melanoma tumor): decreased CD31
Ki-67 expression (cellular proliferation) (B16 mouse melanoma tumor): decreased Ki67
pAMPK (B16 mouse melanoma tumor): increased pAMPK
total GST activity towards CDNB (GST): inhibited the total GST activity to a significant extent
OCR [1]: dose- and time dependently increased the OCR
